Laboratory results reported in PubChem BioAssay AID2060904 (Molecular Pharmacology Branch, DTP, NCI, 2025).

Tested on: 349418-098-R-PDC complex spheroid viability
Test: Anticancer human tumor 349418-098-R-PDC patient-derived lung adenocarcinoma cell line growth inhibition [RAS]
Details: for IC50: curve of first compound; for viability, T/C: stronger effect = lower value
Outline: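 Multi-cell-type spheroids: tumor cells plus HUVEC endothelial cells and mesenchymal stem cells. RAS-pathway inhibitors were combined with targeted agents, each dosed in half-log steps down from clinical Cmax, or from 10 microM when Cmax was unknown.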
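Also: spheroids exposed to compound for seven days before viability readout.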

Cc1nc(N2CCC3(CC2)COC(C)C3N)c(CO)nc1Sc1ccnc(N)c1Cl (configuration not stated) + C=CC(=O)N1CCN(c2nc(OCC3CCCN3C)nc3c(F)c(-c4nc(N)cc(C)c4C(F)(F)F)c(Cl)cc23)C(C)C1
IC50 (second compound 0.00316 µM): > 10 µM
IC50 (second compound 0.01 µM): > 10 µM
IC50 (second compound 0.0316 µM): > 10 µM
IC50 (second compound 0.1 µM): > 10 µM
IC50 (second compound 0.316 µM): > 10 µM
IC50 (second compound 1 µM): > 10 µM
viability, T/C (second compound 0.00316 µM, first compound 0.0316 µM): 100%
viability, T/C (second compound 0.00316 µM, first compound 0.1 µM): 83.6%
viability, T/C (second compound 0.00316 µM, first compound 0.316 µM): 131%
viability, T/C (second compound 0.00316 µM, first compound 1 µM): 86.9%
viability, T/C (second compound 0.00316 µM, first compound 3.16 µM): 81.7%
viability, T/C (second compound 0.00316 µM, first compound 10 µM): 102%
viability, T/C (second compound 0.01 µM, first compound 0.0316 µM): 78.4%
viability, T/C (second compound 0.01 µM, first compound 0.1 µM): 80.5%
viability, T/C (second compound 0.01 µM, first compound 0.316 µM): 92.5%
viability, T/C (second compound 0.01 µM, first compound 1 µM): 92.5%
viability, T/C (second compound 0.01 µM, first compound 3.16 µM): 104%
viability, T/C (second compound 0.01 µM, first compound 10 µM): 98.3%
viability, T/C (second compound 0.0316 µM, first compound 0.0316 µM): 84.3%
viability, T/C (second compound 0.0316 µM, first compound 0.1 µM): 107%
viability, T/C (second compound 0.0316 µM, first compound 0.316 µM): 87.1%
viability, T/C (second compound 0.0316 µM, first compound 1 µM): 73.6%
viability, T/C (second compound 0.0316 µM, first compound 3.16 µM): 120%
viability, T/C (second compound 0.0316 µM, first compound 10 µM): 99%
viability, T/C (second compound 0.1 µM, first compound 0.0316 µM): 82.8%
viability, T/C (second compound 0.1 µM, first compound 0.1 µM): 64.9%
viability, T/C (second compound 0.1 µM, first compound 0.316 µM): 92.5%
viability, T/C (second compound 0.1 µM, first compound 1 µM): 87.3%
viability, T/C (second compound 0.1 µM, first compound 3.16 µM): 81.2%
viability, T/C (second compound 0.1 µM, first compound 10 µM): 82.9%
viability, T/C (second compound 0.316 µM, first compound 0.0316 µM): 81%
viability, T/C (second compound 0.316 µM, first compound 0.1 µM): 89.2%
viability, T/C (second compound 0.316 µM, first compound 0.316 µM): 73.4%
viability, T/C (second compound 0.316 µM, first compound 1 µM): 81.7%
viability, T/C (second compound 0.316 µM, first compound 3.16 µM): 86%
viability, T/C (second compound 0.316 µM, first compound 10 µM): 87.1%
viability, T/C (second compound 1 µM, first compound 0.0316 µM): 105%
viability, T/C (second compound 1 µM, first compound 0.1 µM): 76.5%
viability, T/C (second compound 1 µM, first compound 0.316 µM): 95.8%
viability, T/C (second compound 1 µM, first compound 1 µM): 108%
viability, T/C (second compound 1 µM, first compound 3.16 µM): 88.1%
viability, T/C (second compound 1 µM, first compound 10 µM): 105%
